Values quoted from earlier work in PubChem BioAssay AID1259409 (Chemical Carcinogenesis Research Information System (CCRIS), 2018).

System: rodent chemically induced tumor inhibition, incidence and multiplicity
Experiment: CCRIS tumor inhibitor studies
Conditions: for tumour outcome (control, treated, inhibition, significance): Promoter: NONE USED; for outcome: Carcinogen: 7,12-DIMETHYLBENZ[A]ANTHRACENE (57-97-6), Strain/Sex: SPRAGUE-DAWLEY/FEMALE, Target Tissue: Type of Lesion: MAMMARY: ADENOCARCINOMA
Text: The CCRIS database contains chemical records with carcinogenicity, mutagenicity, tumor promotion, and tumor inhibition test results. It was developed by the National Cancer Institute (NCI). Data are derived from studies cited in primary journals, current awareness tools, NCI reports, and other sources. Test results have been reviewed by experts in carcinogenesis and mutagenesis.
CCRIS provides historical information from the years 1985 - 2011. It is no longer updated.
This is an archive assay for CCRIS tumor inhibitor studies.

S=C=NCCCc1ccccc1
tumour outcome (control, treated, inhibition, significance) (Carcinogen: 4-(METHYLNITROSAMINO)-1-(3-PYRIDYL)-1-BUTANONE, 64091-91-4, Dose [Inhibitor]: 0, 0.2 UMOL 1/D FOR 4 D ADMINISTERED PRIOR TO CARCINOGEN TREATMENT (STUDY DURATION: 116 D), Route [Inhibitor]: GAVAGE, Species: MOUSE, Strain/Sex: STRAIN A, Target Tissue: Type of Lesion: LUNG: ADENOMA, Dose [Carcinogen]: 10 UMOL ONCE 2 HR AFTER FINAL DOSE OF INHIBITOR): 100%, 90%, 10%, not significant
tumour outcome (control, treated, inhibition, significance) (Carcinogen: 4-(METHYLNITROSAMINO)-1-(3-PYRIDYL)-1-BUTANONE, 64091-91-4, Dose [Inhibitor]: 0, 1 UMOL 1/D FOR 4 D ADMINISTERED PRIOR TO CARCINOGEN TREATMENT (STUDY DURATION: 116 D), Route [Inhibitor]: GAVAGE, Species: MOUSE, Strain/Sex: STRAIN A, Target Tissue: Type of Lesion: LUNG: ADENOMA, Dose [Carcinogen]: 10 UMOL ONCE 2 HR AFTER FINAL DOSE OF INHIBITOR): 100%, 75%, 25%, not significant
tumour outcome (control, treated, inhibition, significance) (Carcinogen: 4-(METHYLNITROSAMINO)-1-(3-PYRIDYL)-1-BUTANONE, 64091-91-4, Dose [Inhibitor]: 0, 5 UMOL 1/D FOR 4 D ADMINISTERED PRIOR TO CARCINOGEN DOSE (STUDY DURATION: 116 D), Route [Inhibitor]: GAVAGE, Species: MOUSE, Strain/Sex: STRAIN-A, Target Tissue: Type of Lesion: LUNG: ADENOMA, Dose [Carcinogen]: 10 UMOL IN SALINE ADMINISTERED 2 HR POST LAST AGENT DOSE): 100%, 37%, 63%, p<0.001
tumour outcome (control, treated, inhibition, significance) (Carcinogen: 4-(N-NITROSOMETHYLAMINO)-1-(3-PYRIDYL)-1-BUTANONE, 64091-91-4, Dose [Inhibitor]: 0, 5 UMOL/D FOR 4 CONSECUTIVE DAYS (STUDY DURATION: 16.5 WK), Route [Inhibitor]: GAVAGE, Species: MOUSE, Strain/Sex: STRAIN-A/FEMALE, Target Tissue: Type of Lesion: LUNG: ADENOMA, Dose [Carcinogen]: 10 UMOL ONCE 2 HR POST LAST AGENT DOSE): 100%, 37%, 63%, not calculated
tumour outcome (control, treated, inhibition, significance) (Carcinogen: 4-METHYLNITROSAMINO-1-(3-PYRIDYL)-1-BUTANONE,64091-91-4, Dose [Inhibitor]: 0, 5 UMOL 1/D FOR 4 D ADMINISTERED PRIOR TO CARCINOGEN TREATMENT (STUDY DURATION 116 D), Route [Inhibitor]: GAVAGE, Species: MOUSE, Strain/Sex: STRAIN A, Target Tissue: Type of Lesion: LUNG: ADENOMA, Dose [Carcinogen]: 10 UMOL ONCE 2 HR AFTER FINAL DOSE OF INHIBITOR): 100%, 11%, 89%, p<0.05
tumour outcome (control, treated, inhibition, significance) (Carcinogen: N-NITROSOMETHYLBENZYLAMINE, 937-40-6, Dose [Inhibitor]: 0, 0.4 UMOL/G IN DIET FOR 25 WK BEGINNING 2 WK PRIOR TO CARCINOGEN TREATMENT (STUDY DURATION: 25 WK), Route [Inhibitor]: ORAL, Species: RAT, Strain/Sex: F344/MALE, Target Tissue: Type of Lesion: ESOPHAGUS: TUMOR, Dose [Carcinogen]: 0.5 MG/KG BW IN 20% DMSO 1/WK FOR 15 WK): 100%, 7%, 93%, p<0.05
tumour outcome (control, treated, inhibition, significance) (Carcinogen: N-NITROSOMETHYLBENZYLAMINE, 937-40-6, Dose [Inhibitor]: 0, 1 UMOL/G IN DIET FOR 25 WK BEGINNING 2 WK PRIOR TO CARCINOGEN TREATMENT (STUDY DURATION: 25 WK), Route [Inhibitor]: ORAL, Species: RAT, Strain/Sex: F344/MALE, Target Tissue: Type of Lesion: ESOPHAGUS: TUMOR, Dose [Carcinogen]: 0.5 MG/KG BW IN 20% DMSO 1/WK FOR 15 WK): 100%, 7%, 93%, p<0.05
tumour outcome (control, treated, inhibition, significance) (Carcinogen: N-NITROSOMETHYLBENZYLAMINE, 937-40-6, Dose [Inhibitor]: 0, 2.5 UMOL/G IN DIET FOR 25 WK BEGINNING 2 WK PRIOR TO CARCINOGEN TREATMENT (STUDY DURATION: 25 WK), Route [Inhibitor]: ORAL, Species: RAT, Strain/Sex: F344/MALE, Target Tissue: Type of Lesion: ESOPHAGUS: TUMOR, Dose [Carcinogen]: 0.5 MG/KG BW IN 20% DMSO 1/WK FOR 15 WK): 100%, 0%, 100%, p<0.05

O=C1OCc2ccccc21
tumour outcome (control, treated, inhibition, significance) (Carcinogen: BENZO[A]PYRENE, 50-32-8, Dose [Inhibitor]: 0.034 MMOL/G IN DIET BEGINNING 1 WK PRIOR TO FIRST CARCINOGEN DOSE AND CONTINUING FOR 3 D POST LAST CARCINOGEN DOSE (STU, Route [Inhibitor]: ORAL, Species: MOUSE, Strain/Sex: ICR/FEMALE, Target Tissue: Type of Lesion: FORESTOMACH: TUMOR, Dose [Carcinogen]: 1 MG IN 0.2 ML CORN OIL 2/WK FOR 4 WK): 95%, 95%, 0%, not significant

NCCCCCC(=O)O
tumour outcome (control, treated, inhibition, significance) (Carcinogen: N-ETHYL-N-NITROSOUREA, 759-73-9, Dose [Inhibitor]: 0, 1000 MG/L IN DRINKING WATER FOR 12 MO ADMINISTERED TO CARCINOGEN-TREATED MOTHERS (STUDY DURATION: 12 MO), Route [Inhibitor]: ORAL, Species: RAT, Strain/Sex: ALBINO/MALE, FEMALE, Target Tissue: Type of Lesion: PERIPHERAL NERVES: TUMOR, Dose [Carcinogen]: 75 MG/KG BW ADMINISTERED INTRAPERITONEALLY TO MOTHERS 21 D POST CONCEPTION): 24/63 (38%), 7/33 (21%), 45%, not significant
tumour outcome (control, treated, inhibition, significance) (Carcinogen: N-ETHYL-N-NITROSOUREA, 759-73-9, Dose [Inhibitor]: 0, 1000 MG/L IN DRINKING WATER FOR 12 MO ADMINISTERED TO OFFSPRING OF CARCINOGEN-TREATED MOTHERS (STUDY DURATION: 12 MO), Route [Inhibitor]: ORAL, Species: RAT, Strain/Sex: ALBINO/MALE, FEMALE, Target Tissue: Type of Lesion: BRAIN: TUMOR, Dose [Carcinogen]: 75 MG/KG BW ADMINISTERED INTRAPERITONEALLY TO MOTHERS 21 D POST CONCEPTION): 53/63 (84%), 21/33 (64%), 24%, p<0.05
tumour outcome (control, treated, inhibition, significance) (Carcinogen: N-ETHYL-N-NITROSOUREA, 759-73-9, Dose [Inhibitor]: 0, 1000 MG/L IN DRINKING WATER FOR 12 MO ADMINISTERED TO OFFSPRING OF CARCINOGEN-TREATED MOTHERS (STUDY DURATION: 12 MO), Route [Inhibitor]: ORAL, Species: RAT, Strain/Sex: ALBINO/MALE, FEMALE, Target Tissue: Type of Lesion: KIDNEY: TUMOR, Dose [Carcinogen]: 75 MG/KG BW ADMINISTERED INTRAPERITONEALLY TO MOTHERS 21 D POST CONCEPTION): 23/63 (37%), 7/33 (21%), 43%, not significant
tumour outcome (control, treated, inhibition, significance) (Carcinogen: N-ETHYL-N-NITROSOUREA, 759-73-9, Dose [Inhibitor]: 0, 1000 MG/L IN DRINKING WATER FOR 12 MO ADMINISTERED TO OFFSPRING OF CARCINOGEN-TREATED MOTHERS (STUDY DURATION: 12 MO), Route [Inhibitor]: ORAL, Species: RAT, Strain/Sex: ALBINO/MALE, FEMALE, Target Tissue: Type of Lesion: SPINAL CHORD: TUMOR, Dose [Carcinogen]: 75 MG/KG BW ADMINISTERED INTRAPERITONEALLY TO MOTHERS 21 D POST CONCEPTION): 17/63 (27%), 15/33 (45%), -67%, not significant

CC1=CCC(O)(C(C)C)CC1 (configuration not stated)
outcome (Dose [Inhibitor]: 10 MG/KG BW DAILY BETWEEN 45 AND 59 D OF AGE (STUDY DURATION: 1 YR), Route [Inhibitor]: INTRAGASTRIC (GASTRIC) IN HYDROXYETHYLCELLULOSE SODIUM, Species: RAT, Dose [Carcinogen]: 75 MG/KG BW IN SESAME OIL (ONCE) AT 60 D OF AGE): 75%, 85%
outcome (Dose [Inhibitor]: 10 MG/KG BW DAILY FOR 6 MO AFTER CARCINOGEN ADMINISTRATION, Route [Inhibitor]: INTRAGASTRIC (GASTRIC), Species: RAT, Dose [Carcinogen]: 75 MG/KG BW AT 55 D OF AGE (STUDY DURATION: 1 YR)): 75%, 58%

c1ccc2c(c1)-c1cccc3cccc-2c13
tumour outcome (control, treated, inhibition, significance) (Carcinogen: BENZO[A]PYRENE, 50-32-8, Dose [Inhibitor]: 40 UG IN 0.1 ML ACETONE 3/WK ADMINISTERED SIMULTANEOUSLY WITH CARCINOGEN FOR DURATION OF STUDY (STUDY DURATION: 440 D), Route [Inhibitor]: DERMAL, Species: MOUSE, Strain/Sex: ICR/FEMALE, Target Tissue: Type of Lesion: SKIN: PAPILLOMA, Dose [Carcinogen]: 5 UG IN 0.1 ML ACETONE 3/WK FOR DURATION OF STUDY): 16/50 (32%), 39/50 (78%), -144%, not calculated
tumour outcome (control, treated, inhibition, significance) (Carcinogen: BENZO[A]PYRENE, 50-32-8, Dose [Inhibitor]: 40 UG IN 0.1 ML ACETONE 3/WK ADMINISTERED SIMULTANEOUSLY WITH CARCINOGEN FOR DURATION OF STUDY (STUDY DURATION: 440 D), Route [Inhibitor]: DERMAL, Species: MOUSE, Strain/Sex: ICR/FEMALE, Target Tissue: Type of Lesion: SKIN: SQUAMOUS CARCINOMA, Dose [Carcinogen]: 5 UG IN 0.1 ML ACETONE 3/WK FOR DURATION OF STUDY): 12/50 (24%), 37/50 (74%), -208%, not calculated
